The text below walks through data of patent US20040072206A1, “Method for identifying modulators of transcription” (priority 2000, published 2004).

For one test, the target named is T1, B. subtilis RNAP (Bacillus subtilis, UniProt P37870+P37871).
T1 construct: endogenous in cells; host or cells: Bacillus subtilis strain PL37 (built from strain 168)
The test is described as follows: Dual reporter assay in strain PL37: test reporter Pxyl-lacZ and ratio of control to test reporter (RES:MUG). It counts as cell-based. To be noted: for Ratio of the control reporter (RES): test reporter (MUG): strain PL37, DMSO control […]. The procedure: (§1) 20 known antibiotics were tested at a range of concentrations to determine their effect on test and control reporters within the assay. […] Cultures of PL37 grown in PAB, were diluted to 0.05 A600 and then grown for 2 hours at 37° C. in PAB supplemented with 0.02 mM IPTG. Cells were pelleted and frozen. They were later resuspended and diluted in PAB supplemented with 0.02 mM IPTG and grown at 37° C. to early exponential phase. Cultures were then diluted to 0.05 A600 in PAB and added in 20 μl volumes to wells of microtitre plates containing 20 μl volumes of the antibiotics. Plates were incubated at 37° C. for two hours, and assay mix was added to detect reporter enzyme activity (see below).
(§2) Following the addition of 160 μl of assay mix (1.3×Z buffer containing 94 μg/ml lysozyme, 8.4 μg/ml 4-methylumbelliferyl-β-D-galactoside, 0.53 μg/ml resorufin-β-D-glucuronide and 0.05% Triton) to each well, the microtitre plate was incubated in the dark for 30 mini or 1 hour at room temperature. Fluorescence was read on a BMG FLUOstar Galaxy at excitation/emission 355/460 nm and 544/590 nm, respectively, with gains set at 5 and 25, respectively.

The target in a further test is T2, bacterial RNA polymerase (Bacillus subtilis, UniProt P37870+P37871).
T2 construct: endogenous in cells; host or cells: Bacillus subtilis strain X (derivative of strain 168)
T2 sequence (O35011 whole entry): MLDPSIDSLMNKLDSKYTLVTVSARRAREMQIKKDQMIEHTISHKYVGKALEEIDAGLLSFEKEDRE
T2 sequence (P20429 whole entry, further chain): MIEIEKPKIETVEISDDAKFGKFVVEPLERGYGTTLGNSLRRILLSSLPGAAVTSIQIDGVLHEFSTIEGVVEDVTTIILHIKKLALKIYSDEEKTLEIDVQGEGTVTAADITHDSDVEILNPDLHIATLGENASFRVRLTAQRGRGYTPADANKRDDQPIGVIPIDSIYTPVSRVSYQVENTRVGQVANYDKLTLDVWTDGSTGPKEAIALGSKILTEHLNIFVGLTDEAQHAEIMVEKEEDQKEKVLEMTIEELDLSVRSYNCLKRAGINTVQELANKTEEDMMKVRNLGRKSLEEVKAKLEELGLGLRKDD
T2 sequence (P37870 whole entry): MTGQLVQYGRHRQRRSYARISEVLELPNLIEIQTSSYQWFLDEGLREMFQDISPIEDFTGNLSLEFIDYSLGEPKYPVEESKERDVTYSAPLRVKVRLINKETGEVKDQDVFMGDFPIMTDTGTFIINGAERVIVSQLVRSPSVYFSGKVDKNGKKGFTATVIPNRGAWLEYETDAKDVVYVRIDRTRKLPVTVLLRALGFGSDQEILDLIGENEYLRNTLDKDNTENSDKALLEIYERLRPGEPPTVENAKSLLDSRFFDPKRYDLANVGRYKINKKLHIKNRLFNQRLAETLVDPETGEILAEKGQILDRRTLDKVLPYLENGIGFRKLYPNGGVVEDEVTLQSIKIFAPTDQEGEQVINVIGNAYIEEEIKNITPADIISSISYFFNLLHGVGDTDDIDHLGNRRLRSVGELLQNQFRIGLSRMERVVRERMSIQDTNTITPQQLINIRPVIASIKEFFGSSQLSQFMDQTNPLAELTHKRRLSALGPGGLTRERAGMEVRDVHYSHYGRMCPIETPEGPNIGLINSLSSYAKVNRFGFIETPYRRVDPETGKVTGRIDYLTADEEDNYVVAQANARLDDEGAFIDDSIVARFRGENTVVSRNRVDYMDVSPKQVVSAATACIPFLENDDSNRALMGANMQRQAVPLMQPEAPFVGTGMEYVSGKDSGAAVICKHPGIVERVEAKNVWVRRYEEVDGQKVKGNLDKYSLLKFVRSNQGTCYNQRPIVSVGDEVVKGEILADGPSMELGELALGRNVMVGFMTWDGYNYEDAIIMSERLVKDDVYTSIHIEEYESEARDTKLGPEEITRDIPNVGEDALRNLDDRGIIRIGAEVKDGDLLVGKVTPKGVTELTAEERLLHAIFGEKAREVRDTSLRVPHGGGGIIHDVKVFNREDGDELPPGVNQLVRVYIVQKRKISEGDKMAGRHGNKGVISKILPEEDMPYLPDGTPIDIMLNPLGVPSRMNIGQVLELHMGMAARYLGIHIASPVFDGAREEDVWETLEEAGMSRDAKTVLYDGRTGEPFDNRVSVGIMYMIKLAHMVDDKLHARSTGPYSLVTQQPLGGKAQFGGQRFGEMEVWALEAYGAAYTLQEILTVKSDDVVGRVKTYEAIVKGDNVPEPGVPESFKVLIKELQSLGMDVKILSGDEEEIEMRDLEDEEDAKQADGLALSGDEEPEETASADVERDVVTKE
T2 sequence (P37871 whole entry): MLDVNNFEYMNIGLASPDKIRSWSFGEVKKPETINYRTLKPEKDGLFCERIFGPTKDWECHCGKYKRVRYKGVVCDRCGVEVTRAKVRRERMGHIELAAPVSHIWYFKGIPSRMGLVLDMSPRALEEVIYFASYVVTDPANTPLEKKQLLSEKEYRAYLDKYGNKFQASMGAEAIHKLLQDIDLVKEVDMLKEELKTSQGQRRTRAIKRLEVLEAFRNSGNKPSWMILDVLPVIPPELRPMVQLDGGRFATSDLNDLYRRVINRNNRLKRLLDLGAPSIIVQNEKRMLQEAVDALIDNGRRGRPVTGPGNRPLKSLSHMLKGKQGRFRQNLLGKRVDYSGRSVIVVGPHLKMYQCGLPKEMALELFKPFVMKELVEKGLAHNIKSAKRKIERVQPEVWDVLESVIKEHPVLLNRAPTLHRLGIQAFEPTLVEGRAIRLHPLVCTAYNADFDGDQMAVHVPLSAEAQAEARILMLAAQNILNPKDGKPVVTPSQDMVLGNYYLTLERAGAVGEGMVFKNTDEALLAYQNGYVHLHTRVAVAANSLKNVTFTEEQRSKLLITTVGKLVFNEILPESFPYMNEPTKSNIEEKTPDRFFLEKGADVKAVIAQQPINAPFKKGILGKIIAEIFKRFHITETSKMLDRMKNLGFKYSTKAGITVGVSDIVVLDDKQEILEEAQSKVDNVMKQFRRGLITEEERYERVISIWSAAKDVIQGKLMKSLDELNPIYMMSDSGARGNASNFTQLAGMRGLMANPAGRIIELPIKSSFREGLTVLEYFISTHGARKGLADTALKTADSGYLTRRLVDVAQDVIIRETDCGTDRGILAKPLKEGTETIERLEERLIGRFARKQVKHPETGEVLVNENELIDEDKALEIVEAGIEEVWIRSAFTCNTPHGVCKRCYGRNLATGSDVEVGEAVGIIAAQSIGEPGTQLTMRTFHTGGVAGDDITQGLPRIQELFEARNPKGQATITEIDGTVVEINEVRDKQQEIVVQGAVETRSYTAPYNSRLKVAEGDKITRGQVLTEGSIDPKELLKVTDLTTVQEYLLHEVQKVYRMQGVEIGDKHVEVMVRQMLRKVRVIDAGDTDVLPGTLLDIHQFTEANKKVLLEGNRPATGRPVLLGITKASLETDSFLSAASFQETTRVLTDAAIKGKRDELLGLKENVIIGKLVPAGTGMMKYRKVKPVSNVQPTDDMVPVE
Put plainly: Dual reporter assay in strain X (xylose-induced lacZ and T7 RNAP-driven gus reporters). It counts as cell-based. Particulars: 30 min incubation. The text has this:
The strain X is a derivative of the standard laboratory strain of Bacillus subtilis 168. It has been modified in three ways.
1. It carries a xylose-inducible promoter driving transcription of the well known reporter gene lacZ, encoding the enzyme β-galactosidase. The reporter gene is silent or expressed at low levels in the absence of xylose because the endogenous XylR protein binds to the promoter region, reducing the ability of RNAP to initiate transcription. On addition of xylose or similar sugar, the repressor leaves the promoter allowing RNAP to transcribe the gene strongly, resulting in increased synthesis of β-galactosidase. A simple colourigenic substrate, ONPG was used to detect the formation of the enzyme.
2. Strain X also carries a second reporter gene comprising a promoter recognised by the RNAP of bacteriophage T7. This promoter has been modified so as to be recognised and repressed by the same XylR repressor as controls the first reporter. Consequently, the promoter cannot be utilised by T7 RNAP unless xylose is present. […]
The assay was done by growing a culture of strain X in the absence of xylose and then dispensing aliquots of culture into the wells of a microtitre plate. […] The plate was incubated for 30 min to allow accumulation of the two reporter enzymes, then the cells were lysed and the two enzyme activities were measured.
In general terms: In a reporter assay the amount or activity of a reporter protein is the signal.

The target in a further test is T3, T7 RNAP (Escherichia phage T7, UniProt P00573).
T3 construct: expressed in transfected cells; host or cells: Bacillus subtilis PL37, with Pspac-rpoT7 integrated in the chromosome and induced by IPTG
T3 sequence (P00573 whole entry): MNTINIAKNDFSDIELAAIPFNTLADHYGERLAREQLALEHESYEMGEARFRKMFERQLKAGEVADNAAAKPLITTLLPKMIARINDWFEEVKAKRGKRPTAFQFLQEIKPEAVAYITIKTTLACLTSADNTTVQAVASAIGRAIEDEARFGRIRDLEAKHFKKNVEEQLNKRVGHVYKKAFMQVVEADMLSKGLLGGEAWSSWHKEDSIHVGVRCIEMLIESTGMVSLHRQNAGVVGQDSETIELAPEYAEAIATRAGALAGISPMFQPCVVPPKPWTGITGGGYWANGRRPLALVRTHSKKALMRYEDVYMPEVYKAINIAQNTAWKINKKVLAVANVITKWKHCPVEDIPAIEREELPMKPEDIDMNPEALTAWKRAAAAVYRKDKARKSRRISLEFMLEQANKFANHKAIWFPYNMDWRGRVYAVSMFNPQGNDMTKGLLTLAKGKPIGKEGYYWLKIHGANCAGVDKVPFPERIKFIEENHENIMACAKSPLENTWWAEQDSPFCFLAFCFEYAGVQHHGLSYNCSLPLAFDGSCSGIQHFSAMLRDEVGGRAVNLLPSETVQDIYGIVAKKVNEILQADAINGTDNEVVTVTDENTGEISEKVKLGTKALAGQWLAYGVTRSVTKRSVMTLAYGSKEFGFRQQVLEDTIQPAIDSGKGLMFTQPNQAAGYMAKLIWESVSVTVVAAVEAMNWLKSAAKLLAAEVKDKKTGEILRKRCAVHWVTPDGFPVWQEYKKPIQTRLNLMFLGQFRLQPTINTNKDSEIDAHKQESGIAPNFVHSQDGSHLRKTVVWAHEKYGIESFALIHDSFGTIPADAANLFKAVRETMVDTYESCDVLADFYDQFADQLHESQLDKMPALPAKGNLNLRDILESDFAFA
Put plainly: Dual reporter assay in strain PL37: control reporter PT7X-gus. The format is cell-based, bacteriophage T7. Particulars: strain PL37, FIG. 5. As to the method:
as §1, §2

The mark [1] stands for this setting: Dilution Number 1 (highest concentration tested: 128, 16 or 0.5 μg/ml depending on antibiotic).
Setting [2] is: Dilution Number 11 (lowest concentration tested: 0.125, 0.016 or 0.0005 μg/ml depending on antibiotic).

T1 sequence (P37871 whole entry): as the sequence (P37871 whole entry) above
T1 sequence (P20429 whole entry, further chain): as the sequence (P20429 whole entry, further chain) above
T1 sequence (O35011 whole entry, further chain): as the sequence (O35011 whole entry) above
T1 sequence (P37870 whole entry): as the sequence (P37870 whole entry) above

With `CC1(C)S[C@@H]2[C@H](NC(=O)Cc3ccccc3)C(=O)N2[C@H]1C(=O)O` [Penicillin G], the “Ratio of the control reporter (RES): test reporter (MUG)” value (from here on “Ratio of the control reporter (RES)”) on B. subtilis RNAP (setting [1]) was determined as 1.77; at B. subtilis RNAP (Dilution Number 2) it was 1.72; on B. subtilis RNAP (Dilution Number 3) it was 1.70; at B. subtilis RNAP (Dilution Number 4) it was 1.76; on B. subtilis RNAP (Dilution Number 5), 1.81; on B. subtilis RNAP (Dilution Number 6), 1.80. Besides, the “Ratio of the control reporter (RES)” value at B. subtilis RNAP (Dilution Number 7) is listed as 1.84; at B. subtilis RNAP (Dilution Number 8), 1.64; on B. subtilis RNAP (Dilution Number 9), 1.01; at B. subtilis RNAP (Dilution Number 10), 1.01; on B. subtilis RNAP (setting [2]), 1.07.

For the compound `CN[C@@H]1[C@H](O)[C@H](NC)[C@H]2O[C@@]3(O)C(=O)C[C@@H](C)O[C@H]3O[C@@H]2[C@H]1O` [Spectinomycin], the “Reporter expression (both reporter activities)” value on B. subtilis RNAP (strain PL37, FIG. 5 and FIG. 6) is “remained unchanged”. Also, the “Ratio of the control reporter (RES)” value at B. subtilis RNAP (setting [1]) was determined as 1.30; on B. subtilis RNAP (Dilution Number 2), 1.23; at B. subtilis RNAP (Dilution Number 3) it was 1.21; on B. subtilis RNAP (Dilution Number 4), 1.14; on B. subtilis RNAP (Dilution Number 5), 1.16; on B. subtilis RNAP (Dilution Number 6), 1.14. The “Ratio of the control reporter (RES)” value at B. subtilis RNAP (Dilution Number 7) was determined as 1.08; on B. subtilis RNAP (Dilution Number 8), 1.10; on B. subtilis RNAP (Dilution Number 9), 1.10; on B. subtilis RNAP (Dilution Number 10) it was 1.10; on B. subtilis RNAP (setting [2]), 1.13.

As to `CNC(=O)[C@@H](C)[C@H]1C(=O)/C(=C(O)/C=C/C(C)=C/[C@@H](C)[C@H]2O[C@@]3(C)O[C@H](C=C[C@@]34CO4)[C@@H]2C)C(=O)N1[C@@H]1CC[C@H](O)[C@H](C)O1` [Streptolydigin], at bacterial RNA polymerase, the “Reporter enzyme activities (β-galactosidase and β-glucuronidase)” value is “only the reporter enzyme driven by the T7 RNAP (β-glucuronidase) was active”. Moreover, the “Expression of the test reporter, xyl-lacZ” value at B. subtilis RNAP (strain PL37, FIG. 6) is “reduced drastically”. Further, at B. subtilis RNAP (strain PL37, Table 2, FIG. 7), the “RES:MUG ratio compared with the no antibiotic control (DMSO)” value is “greater than that of the no antibiotic control (DMSO) at several concentrations”. The “Detection as specific inhibitor of RNA polymerase” value on B. subtilis RNAP (strain PL37, antibiotic panel) was “detected as specific inhibitors of RNA polymerase”. The “Ratio of the control reporter (RES)” value at B. subtilis RNAP (setting [1]) is 16.44; at B. subtilis RNAP (Dilution Number 2), 16.68; at B. subtilis RNAP (Dilution Number 3) it was 14.07; at B. subtilis RNAP (Dilution Number 4) it was 10.22; on B. subtilis RNAP (Dilution Number 5), 4.88; on B. subtilis RNAP (Dilution Number 6), 2.53. The “Ratio of the control reporter (RES)” value was 1.74 at B. subtilis RNAP (Dilution Number 7); 1.41 on B. subtilis RNAP (Dilution Number 8); 1.27 at B. subtilis RNAP (Dilution Number 9); 1.23 on B. subtilis RNAP (Dilution Number 10); 1.16 on B. subtilis RNAP (setting [2]). In addition, the “Expression of the T7 RNAP-dependent control reporter” value on T7 RNAP is listed as “increased”.

In the case of `CC(O)C(=O)O.COc1cc(Cc2cnc(N)nc2N)cc(OC)c1OC` [Trimethoprim Lactate], the “Ratio of the control reporter (RES)” value at B. subtilis RNAP (setting [1]) was 0.62; at B. subtilis RNAP (Dilution Number 2), 0.55; at B. subtilis RNAP (Dilution Number 3) it was 0.54; on B. subtilis RNAP (Dilution Number 4) it was 0.52; at B. subtilis RNAP (Dilution Number 5), 0.54; on B. subtilis RNAP (Dilution Number 6) it was 0.58. In addition, the “Ratio of the control reporter (RES)” value is 0.68 on B. subtilis RNAP (Dilution Number 7); 0.65 at B. subtilis RNAP (Dilution Number 8); 0.63 on B. subtilis RNAP (Dilution Number 9); 0.81 on B. subtilis RNAP (Dilution Number 10); 1.00 on B. subtilis RNAP (setting [2]).

Turning to `CN[C@H](CC(C)C)C(=O)N[C@H]1C(=O)N[C@@H](CC(N)=O)C(=O)N[C@H]2C(=O)N[C@H]3C(=O)N[C@H](C(=O)N[C@H](C(=O)O)c4cc(O)cc(O)c4-c4cc3ccc4O)[C@H](O)c3ccc(c(Cl)c3)Oc3cc2cc(c3O[C@@H]2O[C@H](CO)[C@@H](O)[C@H](O)[C@H]2O[C@H]2C[C@](C)(N)[C@H](O)[C@H](C)O2)Oc2ccc(cc2Cl)[C@H]1O` [Vancomycin], the “Ratio of the control reporter (RES)” value at B. subtilis RNAP (Dilution Number 7) is given as 1.03; on B. subtilis RNAP (Dilution Number 8), 1.04; at B. subtilis RNAP (Dilution Number 9), 1.07; at B. subtilis RNAP (Dilution Number 10) it was 1.11; on B. subtilis RNAP (setting [2]), 1.12.

As for Polymyxin, the “Ratio of the control reporter (RES)” value at B. subtilis RNAP (setting [1]) is 1.19; at B. subtilis RNAP (Dilution Number 2) it was 1.22; at B. subtilis RNAP (Dilution Number 3), 1.21; on B. subtilis RNAP (Dilution Number 4), 1.23; at B. subtilis RNAP (Dilution Number 5), 1.44; at B. subtilis RNAP (Dilution Number 6) it was 1.24. Also, the “Ratio of the control reporter (RES)” value at B. subtilis RNAP (Dilution Number 7) stood at 1.20; at B. subtilis RNAP (Dilution Number 8) it was 1.15; on B. subtilis RNAP (Dilution Number 9), 1.16; at B. subtilis RNAP (Dilution Number 10), 1.16; on B. subtilis RNAP (setting [2]) it was 1.17.
